Test results taken from patent publication US11266645B2, “Methods for treating lymphoma” (Alexion Pharmaceuticals, Inc., priority 2018, dated 2022).
Like-named read-outs stand apart in the source and are kept apart here.

Columns and labels:
[1] = Food and proton pump inhibitor crossover PK study in healthy subjects; type: in vivo, human; conditions: 30 mg oral; for Cmax / AUC(0-inf) / half-life / Tmax: human; for Cmax / AUC(0-inf): po, 30 mg; for AUC(0-inf): read-out: AUC0−inf Mean; for half-life: read-out: T1/2 Mean (converted); for Tmax: read-out: Tmax Median
Procedure: In an open-label, randomized, 3-period crossover study, healthy subjects received 30 mg cerdulatinib orally. The 3-period treatments were fasted, high-fat diet, and proton pump inhibitor (PPI) esomaprazole, with 14-day washout between treatments. Blood samples were collected up to 72 hours after cerdulatinib treatment. PK endpoints were area under the curve (AUC), maximum concentration (Cmax), Time to Cmax (Tmax), and half-live (T1/2).

[2] = tested on: CLL tumor cell surface CD5, CD69, CD86, CXCR4; assay: CLL tumor cell surface marker expression by FACS; type: in vivo, human; conditions: C2D1 vs C1D1, two CLL patients
Procedure: For PD assessments, serial blood samples were drawn into lithium-heparin vacutainer tubes on Day 1 prior to dosing and again at 0.5, 1, 2, and 4 hours post-dose; on Day 8 at pre-dose and 2 hours post-dose; and Day 28 prior to dosing. Multiple assays were performed using the Day 1 and Day 8 PD samples. SYK-mediated BCR signaling in whole blood was measured prior to and post-dosing by stimulating 100 μL whole blood with 2 μL of anti-human IgD (IgG fraction) and 10 μg anti-human IgM for 10 minutes at 37° C., measuring the induction of pSYK Y525/526, pAKT S473, and pERK Y204. Similarly, whole blood was stimulated with 10 ng/mL of IL-2 (JAK1/3-dependent), IL-4 (JAK1/3-dependent), IL-6 (JAK1/TYK2-dependent) or GM-CSF (JAK2-dependent) for 20 minutes, measuring the induction of pSTAT5 Y694 in T-cells and NK cells, the induction of pSTAT6 Y641 in B cells, T-cells, NK cells, and monocytes, the induction of pSTAT3 Y705 in monocytes, B cells, and T-cells, and the induction of pSTAT5 Y694 in monocytes, respectively. The technical details for these assays were described in Coffey, G., et al., J Pharmacol Exp Ther, 2014. 351(3): p. 538-48. With blood samples from the CLL patients only, tumor cell surface expression of CD5, CD69, CD86, and CXCR4 pre-dose on days 1 and 28 were monitored. The recommended volume of antibodies were applied directly to 100 μL whole blood and incubated for 1 hour at room temperature. Afterwards, 4 mL of BD Lyse/Fix reagent was added to the blood to lyse red blood cells and fix the remaining leukocytes, followed by washing and FACS analysis. For each assay, data were collected using an LSR II instrument (BD Bioscience, San Jose, Calif.) and analyzed using Flowjo software (Flowjo LLC, Ashland, Oreg.). Data were normalized to the induction of each parameter prior to dosing on day 1 to generate percent inhibition post-dosing.

[3] = tested on: U-CLL cells and M-CLL cells; assay: IL-4 treated U-CLL and M-CLL cells, immunoblotting; type: cell-based, human; conditions: 1 μM, 10 ng/mL IL-4, 24 hours
Procedure: U-CLL cells and M-CLL cells were treated with and without 10 ng/mL IL-4 for 24 hours in the presence or absence of 1 μM cerdulatinib. Immunoblotting was used to protein expression among the different treatments. […] FIGS. 10A-10G, 11A-11G and 12A-12G show the fold changes of the protein expression.

[4] = tested on: PMA-mediated B cell pERK Y204; assay: PMA-mediated B cell pERK Y204; type: cell-based, human; conditions: patient samples
Procedure: The potency and selectivity for target inhibition following oral dosing in patients using a variety of whole blood assays was measured.

[5] = tested on: patients with relapsed/refractory Follicular Lymphoma; conditions: r/r FL, single agent; cited from earlier work
[6] = Blood absolute lymphocyte counts (ALC); type: in vivo, human; conditions: 5 CLL/SLL patients
Description: Treatment-related increases in blood absolute lymphocyte counts (ALC) occurred in both CLL/SLL and FL patients (FIG. 6A and FIG. 6B). Of the 6 CLL/SLL patients treated with cerdulatinib, 5 remained on drug long enough to monitor ALC, which were elevated 0.3-10 fold relative to pre-treatment. For two of these patients, treatment-related changes in tumor cell surface activation and homing markers were additionally evaluated (FIG. 7A and FIG. 7B). As shown in the ALC plots over time (FIG. 6A and FIG. 6B), by the beginning of the second cycle of treatment (Cycle 2 Day 1; C2D1) there was considerable mobilization of tumor cells into the peripheral blood.

SU-DHL6 xenograft = SU-DHL6 xenograft in Nude mice; type: in vivo; conditions: tumors treated with cerdulatinib
Procedure: Xenograft studies in Nude mice were performed to evaluate cerdulatinib and venetoclax in combination. Nude mice were inoculated with […] SU-DHL6 cells subcutaneously. Once tumors reached 200 mm^3, the mice were randomized into 4 groups: vehicle, cerdulatinib alone, venetoclax alone, or a combination of cerdulatinib and venetoclax.

xenograft = assay: Xenograft studies with rituximab; type: in vivo

CCS(=O)(=O)N1CCN(c2ccc(Nc3ncc(C(N)=O)c(NC4CC4)n3)cc2)CC1 [cerdulatinib, 4-(cyclopropylamino)-2-((4-(4-(ethylsulfonyl)piperazin-1-yl)phenyl)amino)pyrimidine-5-carboxamide]
AUC0−inf Ratio Fed/Fasted [1]: 1.16
AUC0−inf Ratio PPI/Fasted [1]: 1.06
Cmax Ratio Fed/Fasted [1]: 1.11
Cmax Ratio PPI/Fasted [1]: 1.02
T1/2 Mean ([1]; Fasted): 14.5 h
Cmax ([1]; blood, Fed (high-fat diet)): 187 ng/mL
AUC(0-inf) ([1]; blood, Fed (high-fat diet)): 4060 ng·h/mL
half-life ([1]; blood, Fed (high-fat diet)): 13.6 h
Tmax ([1]; blood, Fed (high-fat diet)): 6 h
Cmax ([1]; in vivo, Fasted): 168 ng/mL
AUC(0-inf) ([1]; in vivo, Fasted): 3460 ng·h/mL
Cmax ([1]; in vivo, PPI (esomaprazole)): 170 ng/mL
AUC(0-inf) ([1]; in vivo, PPI (esomaprazole)): 3680 ng·h/mL
half-life ([1]; in vivo, PPI (esomaprazole)): 14.5 h
Tmax ([1]; in vivo, PPI (esomaprazole)): 4 h
CD5 expression [2]: reduced
CXCR4 expression [2]: enhanced
expression of surface activation markers CD69 and CD86 [2]: decreased expression
IL-4 induced increase of GABA1, FOXP1, SOCS1, and SOCS3 protein expression [3]: suppresses
inhibition of PMA-mediated B cell pERK Y204 [4]: No inhibition
ORR, previously reported [5]: ~45%
ALC elevation relative to pre-treatment [6]: 0.3-10 fold
Bim expression in tumors (SU-DHL6 xenograft): increase
MCL-1 in tumors (SU-DHL6 xenograft): no change
effect on the anti-tumor activity of rituximab (xenograft): does not interfere
